Test results published in US4043759A (priority 1976, dated 1977).

Assay: Methotrexate concentration in patient serum as function of time after injection, by the radioassay
Assay type: in vivo
Description: The preparation of patient samples, such as patient serum and spinal fluid, is as follows:
1. Take 0.3 ml of fluid to be tested and add to 2.7 ml Buffer B to provide a 1:10 dilution.
2. Take 0.3 ml of 1:10 dilution and add to 2.7 ml of Buffer B to provide a 1:100 dilution.
3. Take 0.3 ml of 1:100 dilution and add to 2.7 ml Buffer B to provide a 1:1000 dilution.
4. Take 0.3 ml of 1:1000 dilution and add to 2.7 ml Buffer B to provide 1:10,000 dilution.
6. Centrifuge for 1 or 2 minutes at 2500 × g.
7. Decant supernate liquid into clean tubes.

- Concentration of Methotrexate (after infusion): 66000 ng/mL
- concentration at 24 h (human, 24 hours after injection): 7200 ng/mL
- concentration at 48 h (human, 48 hours after injection): 420 ng/mL
- concentration at 63 h (human, 63 hours after injection): 290 ng/mL
- concentration at 72 h (human, 72 hours after injection): 200 ng/mL
SMILES: CN(Cc1cnc2nc(N)nc(N)c2n1)c1ccc(C(=O)N[C@@H](CCC(=O)O)C(=O)O)cc1 [Methotrexate]
